Molecules are shown by their SMILES.

The first experiment deals with SARS-CoV-2 3CLpro (Severe acute respiratory syndrome coronavirus 2 (2019-nCoV) (SARS-CoV-2), UniProt P0DTD1).
Assay: not given
In kind it is biochemical.
Conditions: not given
For `O=C(Cc1cncc2ccccc12)N(Cc1cc(F)cc(Cl)c1)c1ccc(-c2c[nH]cn2)cc1` [Compound 12, N-[(3-chloro-5-fluoro-phenyl)methyl]-N-[4-(1H-imidazol-4-yl)phenyl]-2-(4-isoquinolyl)acetamide], the IC50 (usually the concentration at which inhibition is half-maximal) turned out to be 15 nM.

For `COc1ccc(Cl)cc1CN(C(=O)Cc1cncc2ccccc12)c1ccc(-c2c[nH]cn2)cc1` [Compound 18], half-maximal inhibition (IC50) was put at 191 nM.

In the case of `O=C(Cc1cncc(C2CC2)c1)N(Cc1cc(F)cc(Cl)c1)c1ccc(-c2c[nH]cn2)cc1` [Compound 71], the IC50 stood at 115 nM.

On to `O=C(Cc1cnccn1)N(Cc1cc(F)cc(Cl)c1)c1ccc(-c2c[nH]cn2)cc1` [Compound 55], for which it took 2040 nM to reach half-maximal inhibition (IC50).

On to `O=C(Cc1cncc2ccccc12)N(Cc1cc(Cl)ccc1F)c1ccc(-c2c[nH]cn2)cc1` [Compound 15], for which the IC50 turned out to be 308 nM.

The compound `O=C(Cc1cncc2ccccc12)N(Cc1cncc(F)c1)c1ccc(C2CNC2)cc1` [Compound 60] returned an IC50 of 193 nM.

In the case of `CC(C)(C)NC(=O)C(c1cc(F)cc(F)c1)N(C(=O)Cc1cncc2ccccc12)c1ccc(-c2c[nH]cn2)cc1` (stereo not drawn) [Compound 64], half-maximal inhibition (IC50) was put at 231 nM.

For the compound `O=C(Cc1cncnc1)N(Cc1cc(F)cc(Cl)c1)c1ccc(-c2c[nH]cn2)cc1` [Compound 48], the midpoint of inhibition, the IC50, lay at 542 nM.

`COc1cc(F)cc(CN(C(=O)Cc2cncc3ccccc23)c2ccc(-c3c[nH]cn3)cc2)c1` [Compound 54]: half-maximal inhibition (IC50) required 90 nM.

`O=C(Cc1nnc2ccc(F)cn12)N(Cc1cccc(Cl)c1)c1ccc(-c2cn[nH]c2)cc1` [Compound 3, N-[(3-chlorophenyl)methyl]-2-(6-fluoro-[1,2,4]triazolo[4,3-a]pyridin-3-yl)-N-[4-(1H-pyrazol-4-yl)phenyl]acetamide] returned an IC50 of 3360 nM.

In the case of `C[C@H](c1cc(F)cc(Cl)c1)N(C(=O)Cc1cncc2ccccc12)c1ccc(-c2c[nH]cn2)cc1` [Compound 14], the IC50 came to 76 nM.

`O=C(Cc1cncc(F)c1)N(Cc1cncc(F)c1)c1ccc(-c2c[nH]cn2)cc1` [Compound 81] showed a half-inhibitory concentration (IC50) of 1310 nM.

Regarding `O=C(Cc1cnccc1Cl)N(Cc1cc(F)cc(Cl)c1)c1ccc(-c2c[nH]cn2)cc1` [Compound 76], the IC50 worked out at 311 nM.

On to `O=C(Cc1cccnc1)N(Cc1cc(F)cc(Cl)c1)c1ccc(-c2c[nH]cn2)cc1` [Compound 43], for which half-maximal inhibition (IC50) was put at 188 nM.

As for `O=C(Cc1cncc2ccccc12)N(Cc1cncc(Cl)c1)c1ccc(-c2c[nH]cn2)cc1` [Compound 17], half-maximal inhibition (IC50) required 101 nM.

In turn, `O=C(Cc1cncc2ccccc12)N(Cc1cccc(Cl)c1)c1ccc(-c2cn[nH]c2)cc1` [Compound 2, N-[(3-chlorophenyl)methyl]-2-(4-isoquinolyl)-N-[4-(1H-pyrazol-4-yl)phenyl]acetamide] yielded an IC50 of 30 nM.

In turn, `O=C(Cc1cncc2ccccc12)N(Cc1cc(F)cc(F)c1)c1ccc(C2=CCNC2)cc1` [Compound 56] gave an IC50 of 139 nM.

Another experiment concerns SARS-CoV-2. Description: microbe, parasite or virus in culture. In kind it is cell-based, SARS-Related Coronavirus 2, Isolate USA-WA1/2020. To be noted: Severe acute respiratory syndrome coronavirus 2, Vero C1008.
As to `O=C(Cc1cncc2ccccc12)N(Cc1cc(F)cc(Cl)c1)c1ccc(-c2c[nH]cn2)cc1` [Compound 12, N-[(3-chloro-5-fluoro-phenyl)methyl]-N-[4-(1H-imidazol-4-yl)phenyl]-2-(4-isoquinolyl)acetamide], the EC50 (as a rule, the concentration at which the effect is half-maximal) was 1140 nM.

Source of the values: patent US20240293380A1, “PROTEASE INHIBITORS AND METHODS OF USE” (priority 2021, published 2024).
